Reference: patent publication US20090203609A1, “Use of IL-1 inhibitors for treating IL-1 mediated diseases” (AMGEN INC., priority 1996, published 2009)

Assays:
[1] = test system: adjuvant arthritic rats; assay: Adjuvant arthritis model, first Example 4 (rhuIL-1ra 5 mg/kg/hr infusion, methotrexate dose range); format: in vivo, Male Lewis rats; details: rhuIL-1ra alone
Procedure: (§1) Male Lewis rats (Charles River, Portage, Mich.) (5-7/group) weighing at least 250-300 g were cannulated in the subcutis of the dorsal back and allowed to recover for several days. They were then placed in infusion cages and acclimated for at least 4 days prior to initiating adjuvant injections. On day-0, all rats were injected with 100 μl of Freunds Complete Adjuvant (Sigma Chemical Co., St. […] Body weights were taken on day 0 and every other day from day 8 to termination on day 15. Caliper measurements and clinical scoring were done on day 8 and every other day until termination. At this time the animals' body, paw and spleen weights were determined.

[2] = test system: adjuvant arthritic rats; assay: Adjuvant arthritis model, Example 1 (rhuIL-1ra IV infusion, oral methotrexate); format: in vivo, Male Lewis rats; details: rhuIL-1ra 5 mg/kg/hr continuous IV infusion from day 8; methotrexate 0.06 mg/kg oral days 0-14; termination day 15
Procedure: Male Lewis rats (Charles River, Portage, Mich.) (5 per group) weighing at least 200 g were cannulated with jugular catheters and allowed to recover for several days. They were then placed in infusion cages and acclimated for a week prior to initiating adjuvant injections. On day 0, all treated rats were injected with 100 μl of Freunds Complete Adjuvant (Sigma Chemical Co., St. […] On day 8, treatment with E. coli-derived human recombinant IL-1 receptor antagonist (prepared generally in accordance with the teachings of U.S. Pat. […] Body weights were taken on day 0 and every other day from day 8 to termination on day 15. Caliper measurements and clinical scoring were done on day 8 and every other day until termination. At this time the animals' body, paw and spleen weights were determined.

[3] = test system: adjuvant arthritic rats; assay: Adjuvant arthritis model, Example 3 (rhuIL-1ra subcutaneous infusion, methotrexate dose range); format: in vivo, Male Lewis rats; set-up: inhibition of final paw weight: dose or concentration left out as unconfirmed; details: rhuIL-1ra alone
Procedure: as §1

[4] = test system: EAE model; assay: EAE model, second Example 4 (integrated clinical score, weight gain); format: in vivo, Female Strain 13 guinea pigs
[5] = test system: adjuvant arthritic rats; assay: Adjuvant arthritis model, Example 2 (rhuIL-1ra IV infusion, oral methotrexate); format: in vivo, Male Lewis rats; details: rhuIL-1ra 5 mg/kg/hr continuous IV infusion from day 8; methotrexate 0.06 mg/kg oral days 0-14; termination day 15
Procedure: as §1, with “200” for “250-300”, “with jugular catheters” for “in the subcutis of the dorsal back”, “one week” for “4 days”

rhuIL-1ra: E. coli-derived human recombinant IL-1 receptor antagonist (SEQ ID NO:2), in citrate buffer formulation
inhibition of bone resorption, histologic evaluation of ankle joints [1]: 53%
inhibition of inflammation, histologic evaluation of ankle joints [1]: 8%
inhibition of swelling, ankle joint diameter over time (area under the curve) ([1]; 5 mg/kg/hr infusion): 6%
inhibition of final paw weight ([1]; continuous subcutaneous infusion 5 mg/kg/hr, days 8-15): 6%
inhibition of arthritis (paw swelling) [2]: 57%
inhibition of body weight change [2]: 25%
inhibition of splenomegaly (spleen weight) [2]: no significant benefit
inhibition of bone resorption, histologic evaluation of ankle joints [3]: 53%
inhibition of inflammation, histologic evaluation of ankle joints [3]: 8%
inhibition of swelling, ankle joint diameter over time (area under the curve) ([3]; 5 mg/ml/hr sc infusion): 6%
inhibition of final paw weight ([3]; continuous subcutaneous infusion, days 8-15): 6%
attenuation of clinical symptoms/signs (integrated clinical score) ([4]; rhuIL-1ra 10 mg/kg s.c. 3x a day from day 0, alone or with r-metIFN-con1 0.03 mg/kg s.c.): 49%
attenuation of clinical symptoms/signs (integrated clinical score) ([4]; rhuIL-1ra 100 mg/kg s.c. 3x a day from day 0, alone or with r-metIFN-con1 0.03 mg/kg s.c.): 53%
inhibition of body weight change [5]: no inhibition
inhibition of paw swelling [5]: 22%
inhibition of splenomegaly [5]: 24%
